Laboratory results: the NIST ThermoML archive (doi:10.1021/acs.jced.7b00363)
Numbers after ± are expanded uncertainties.

Key:
[1] = Surface laser light scattering (SLLS); for viscosity: Liquid
[2] = wn = mass fraction of the nth substance listed; conditions: Surface laser light scattering (SLLS); for viscosity: Liquid

Row | SMILES | surface tension liquid-gas ([1]; 398.15 K) | viscosity ([1]; 398.15 K) | surface tension liquid-gas ([1]; 423.15 K) | viscosity ([1]; 423.15 K) | surface tension liquid-gas ([1]; 448.15 K) | viscosity ([1]; 448.15 K) | surface tension liquid-gas ([1]; 473.15 K) | viscosity ([1]; 473.15 K) | surface tension liquid-gas ([1]; 498.15 K) | viscosity ([1]; 498.15 K) | surface tension liquid-gas ([1]; 523.15 K) | viscosity ([1]; 523.15 K) | surface tension liquid-gas ([1]; 548.15 K) | viscosity ([1]; 548.15 K) | surface tension liquid-gas ([1]; 573.15 K) | viscosity ([1]; 573.15 K) | other results
1 | CCCCCCCCCCCC [dodecane] | 16.22 ± 0.14 mN/m | 0.4003 ± 0.012 mPa·s | 14.33 ± 0.26 mN/m | 0.3223 ± 0.011 mPa·s | 12.38 ± 0.24 mN/m | 0.2595 ± 0.01 mPa·s | 10.67 ± 0.08 mN/m | 0.2156 ± 0.0094 mPa·s | 8.95 ± 0.16 mN/m | 0.1821 ± 0.0092 mPa·s | 7.25 ± 0.08 mN/m | 0.1532 ± 0.0089 mPa·s | 5.64 ± 0.07 mN/m | 0.1277 ± 0.0087 mPa·s | 4.14 ± 0.07 mN/m | 0.1051 ± 0.0086 mPa·s | surface tension liquid-gas ([1]; 323.15 K): 21.64 ± 0.23 mN/m; viscosity ([1]; 323.15 K): 0.9225 ± 0.025 mPa·s; surface tension liquid-gas ([1]; 348.15 K): 19.91 ± 0.3 mN/m; viscosity ([1]; 348.15 K): 0.6763 ± 0.017 mPa·s; surface tension liquid-gas ([1]; 373.15 K): 18.19 ± 0.31 mN/m; viscosity ([1]; 373.15 K): 0.507 ± 0.013 mPa·s
2 | CCCCCCCCCCCCCCCCCCCCCCCCCCCC [octacosane] | 21.33 ± 0.69 mN/m | 1.814 ± 0.082 mPa·s | 19.53 ± 0.52 mN/m | 1.361 ± 0.043 mPa·s | 17.78 ± 0.31 mN/m | 1.025 ± 0.025 mPa·s | 16.57 ± 0.48 mN/m | 0.8318 ± 0.02 mPa·s | 15.38 ± 0.29 mN/m | 0.6847 ± 0.019 mPa·s | 14.18 ± 0.26 mN/m | 0.5675 ± 0.017 mPa·s | 12.86 ± 0.18 mN/m | 0.4753 ± 0.016 mPa·s | 11.51 ± 0.18 mN/m | 0.3995 ± 0.012 mPa·s | 
3 | CCCCCCCCCCCCCCCCCCCCCCCCCCCC [octacosane] + CCCCCCCCCCCC |  |  |  |  |  |  |  |  |  |  |  |  |  |  |  |  | surface tension liquid-gas ([2]; 373.15 K, w2 = 0.156): 21.71 ± 0.57 mN/m; viscosity ([2]; 373.15 K, w2 = 0.156): 1.944 ± 0.064 mPa·s; surface tension liquid-gas ([2]; 398.15 K, w2 = 0.156): 19.8 ± 0.5 mN/m; viscosity ([2]; 398.15 K, w2 = 0.156): 1.412 ± 0.043 mPa·s; surface tension liquid-gas ([2]; 423.15 K, w2 = 0.156): 18.5 ± 0.25 mN/m; viscosity ([2]; 423.15 K, w2 = 0.156): 1.089 ± 0.028 mPa·s; surface tension liquid-gas ([2]; 448.15 K, w2 = 0.155): 17.07 ± 0.24 mN/m; viscosity ([2]; 448.15 K, w2 = 0.155): 0.8604 ± 0.023 mPa·s; surface tension liquid-gas ([2]; 473.15 K, w2 = 0.155): 15.59 ± 0.21 mN/m; viscosity ([2]; 473.15 K, w2 = 0.155): 0.6912 ± 0.016 mPa·s; surface tension liquid-gas ([2]; 498.15 K, w2 = 0.154): 14.15 ± 0.19 mN/m; viscosity ([2]; 498.15 K, w2 = 0.154): 0.5671 ± 0.016 mPa·s; surface tension liquid-gas ([2]; 523.15 K, w2 = 0.152): 12.84 ± 0.23 mN/m; viscosity ([2]; 523.15 K, w2 = 0.152): 0.4787 ± 0.014 mPa·s; surface tension liquid-gas ([2]; 548.15 K, w2 = 0.15): 11.56 ± 0.16 mN/m; viscosity ([2]; 548.15 K, w2 = 0.15): 0.4075 ± 0.013 mPa·s; surface tension liquid-gas ([2]; 573.15 K, w2 = 0.148): 10.3 ± 0.19 mN/m; viscosity ([2]; 573.15 K, w2 = 0.148): 0.3445 ± 0.011 mPa·s
